Experimental data: ChEMBL document CHEMBL5465560, “Selectivity Literature for EUbOPEN Chemogenomic Library” (2024)
Values belong to the compound of their own block, whether it stands above or below them.

Columns and labels:
[1] = molecular target: T1, Dual serine/threonine and tyrosine protein kinase (Homo sapiens) (UniProt Q6XUX3); assay: Selectivity interaction (Ambit KINOMEscan and KiNATiv profiling in Jurkat cells) EUB0000090b DSTYK; assay type: cell-based; conditions: at 1 µM
T1 sequence (whole entry): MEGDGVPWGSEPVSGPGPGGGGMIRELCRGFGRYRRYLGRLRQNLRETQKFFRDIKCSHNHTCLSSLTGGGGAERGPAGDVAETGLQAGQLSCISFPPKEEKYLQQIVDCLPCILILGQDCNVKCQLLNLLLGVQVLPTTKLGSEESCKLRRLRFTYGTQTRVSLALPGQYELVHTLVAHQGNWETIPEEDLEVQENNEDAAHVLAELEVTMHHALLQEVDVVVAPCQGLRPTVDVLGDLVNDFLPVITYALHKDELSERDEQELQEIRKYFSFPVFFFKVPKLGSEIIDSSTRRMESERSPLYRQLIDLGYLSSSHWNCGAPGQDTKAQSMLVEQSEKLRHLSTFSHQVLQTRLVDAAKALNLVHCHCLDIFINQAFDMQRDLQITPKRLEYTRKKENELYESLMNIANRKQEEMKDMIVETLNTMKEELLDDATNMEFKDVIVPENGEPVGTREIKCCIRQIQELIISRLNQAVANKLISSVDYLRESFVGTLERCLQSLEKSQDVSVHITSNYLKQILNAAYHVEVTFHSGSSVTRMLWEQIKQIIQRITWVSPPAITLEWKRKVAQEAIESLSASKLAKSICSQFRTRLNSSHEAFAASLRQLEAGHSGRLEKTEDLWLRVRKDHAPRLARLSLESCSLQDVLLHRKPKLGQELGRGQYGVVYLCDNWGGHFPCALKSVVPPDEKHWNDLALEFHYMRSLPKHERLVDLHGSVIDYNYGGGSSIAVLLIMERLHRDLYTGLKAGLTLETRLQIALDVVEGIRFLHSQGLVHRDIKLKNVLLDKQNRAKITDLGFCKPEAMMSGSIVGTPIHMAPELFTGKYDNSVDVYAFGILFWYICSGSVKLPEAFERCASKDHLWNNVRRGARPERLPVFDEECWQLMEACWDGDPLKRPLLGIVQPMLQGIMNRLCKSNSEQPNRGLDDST

[2] = molecular target: Serine/threonine-protein kinase SIK1 (Homo sapiens) (UniProt P57059); assay: Selectivity interaction (Ambit KINOMEscan and KiNATiv profiling in Jurkat cells) EUB0000090b SIK1; assay type: cell-based; conditions: at 1 µM
[3] = molecular target: T2, Phosphatidylinositol 5-phosphate 4-kinase type-2 gamma (Homo sapiens) (UniProt Q8TBX8); assay: Selectivity interaction (KinomeScan (DiscoverX)) EUB0001079a PIP4K2C; conditions: at 1 µM
T2 sequence (whole entry): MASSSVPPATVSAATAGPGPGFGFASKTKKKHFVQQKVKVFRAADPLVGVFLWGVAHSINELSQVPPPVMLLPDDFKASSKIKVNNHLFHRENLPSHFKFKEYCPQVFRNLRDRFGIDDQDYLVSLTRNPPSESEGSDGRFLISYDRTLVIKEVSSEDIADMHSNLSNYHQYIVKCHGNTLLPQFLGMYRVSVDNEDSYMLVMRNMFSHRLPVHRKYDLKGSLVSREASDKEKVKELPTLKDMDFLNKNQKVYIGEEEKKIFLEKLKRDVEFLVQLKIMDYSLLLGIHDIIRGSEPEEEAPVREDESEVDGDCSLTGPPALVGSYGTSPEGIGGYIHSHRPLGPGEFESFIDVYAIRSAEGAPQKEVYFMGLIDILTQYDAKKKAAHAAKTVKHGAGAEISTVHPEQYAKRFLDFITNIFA

[4] = molecular target: T3, Serine/threonine-protein kinase 17B (Homo sapiens) (UniProt O94768); assay: Selectivity interaction (KinomeScan (DiscoverX)) EUB0000607a STK17B; conditions: at 10 µM
T3 sequence (whole entry): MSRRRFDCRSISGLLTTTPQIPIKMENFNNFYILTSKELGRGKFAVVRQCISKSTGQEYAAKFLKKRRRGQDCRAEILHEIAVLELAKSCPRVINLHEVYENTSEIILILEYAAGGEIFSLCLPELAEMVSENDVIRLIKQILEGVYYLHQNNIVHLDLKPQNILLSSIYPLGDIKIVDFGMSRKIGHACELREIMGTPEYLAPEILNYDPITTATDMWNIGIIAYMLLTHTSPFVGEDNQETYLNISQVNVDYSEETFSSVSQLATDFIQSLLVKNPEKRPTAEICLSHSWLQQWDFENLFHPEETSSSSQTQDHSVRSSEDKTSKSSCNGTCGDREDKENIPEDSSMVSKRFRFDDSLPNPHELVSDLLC

[5] = molecular target: Tyrosine-protein kinase receptor UFO (Homo sapiens) (UniProt P30530); assay: Selectivity interaction (KinomeScan (DiscoverX)) EUB0001619a AXL; conditions: at 1 µM
[6] = molecular target: Macrophage colony-stimulating factor 1 receptor (Homo sapiens) (UniProt P07333); assay: Selectivity interaction (Kinase panel (Invitrogen)) EUB0000639a CSF1R; conditions: at 200 nM
[7] = molecular target: Leucine-rich repeat serine/threonine-protein kinase 2 (Homo sapiens, UniProt Q5S007); assay: Selectivity interaction (ActivX KiNativ screen (kinase selectivity in THP-1 cell lysates)) EUB0000639a LRRK2; assay type: subcellular; conditions: lysate
[8] = molecular target: Mitogen-activated protein kinase kinase kinase 11 (Homo sapiens) (UniProt Q16584); assay: Selectivity interaction (ActivX KiNativ screen (kinase selectivity in THP-1 cell lysates)) EUB0000639a MAP3K11; assay type: subcellular; conditions: lysate
[9] = molecular target: Serine/threonine-protein kinase OSR1 (Homo sapiens) (UniProt O95747); assay: Selectivity interaction (ActivX KiNativ screen (kinase selectivity in THP-1 cell lysates)) EUB0000639a OXSR1; assay type: subcellular; conditions: lysate
[10] = molecular target: Nuclear body protein SP140-like protein (Homo sapiens) (UniProt Q9H930); assay: Selectivity interaction (Bromodomain panel (DSF asssay)) EUB0000270b SP140L
[11] = molecular target: Citron Rho-interacting kinase (Homo sapiens) (UniProt O14578); assay: Selectivity interaction (KinomeScan (DiscoverX)) EUB0000092b CIT; conditions: at 10 µM

Chain of Serine/threonine-protein kinase OSR1 (Homo sapiens) (O95747 2-527 limits assumed): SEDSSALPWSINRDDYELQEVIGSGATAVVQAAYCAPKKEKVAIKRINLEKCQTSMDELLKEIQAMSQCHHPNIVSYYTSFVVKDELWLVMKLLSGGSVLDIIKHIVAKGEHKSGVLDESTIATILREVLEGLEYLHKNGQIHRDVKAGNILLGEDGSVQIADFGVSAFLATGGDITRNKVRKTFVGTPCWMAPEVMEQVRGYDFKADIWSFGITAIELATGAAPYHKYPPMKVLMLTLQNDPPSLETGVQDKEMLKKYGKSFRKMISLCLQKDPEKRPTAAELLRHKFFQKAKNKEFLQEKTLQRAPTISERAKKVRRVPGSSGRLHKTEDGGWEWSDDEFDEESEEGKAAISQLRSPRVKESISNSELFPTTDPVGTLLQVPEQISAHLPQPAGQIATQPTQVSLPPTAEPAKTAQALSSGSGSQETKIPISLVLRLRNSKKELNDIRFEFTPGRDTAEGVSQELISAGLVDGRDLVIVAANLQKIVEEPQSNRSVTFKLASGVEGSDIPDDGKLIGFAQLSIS
Chain of Leucine-rich repeat serine/threonine-protein kinase 2 (Q5S007 whole entry): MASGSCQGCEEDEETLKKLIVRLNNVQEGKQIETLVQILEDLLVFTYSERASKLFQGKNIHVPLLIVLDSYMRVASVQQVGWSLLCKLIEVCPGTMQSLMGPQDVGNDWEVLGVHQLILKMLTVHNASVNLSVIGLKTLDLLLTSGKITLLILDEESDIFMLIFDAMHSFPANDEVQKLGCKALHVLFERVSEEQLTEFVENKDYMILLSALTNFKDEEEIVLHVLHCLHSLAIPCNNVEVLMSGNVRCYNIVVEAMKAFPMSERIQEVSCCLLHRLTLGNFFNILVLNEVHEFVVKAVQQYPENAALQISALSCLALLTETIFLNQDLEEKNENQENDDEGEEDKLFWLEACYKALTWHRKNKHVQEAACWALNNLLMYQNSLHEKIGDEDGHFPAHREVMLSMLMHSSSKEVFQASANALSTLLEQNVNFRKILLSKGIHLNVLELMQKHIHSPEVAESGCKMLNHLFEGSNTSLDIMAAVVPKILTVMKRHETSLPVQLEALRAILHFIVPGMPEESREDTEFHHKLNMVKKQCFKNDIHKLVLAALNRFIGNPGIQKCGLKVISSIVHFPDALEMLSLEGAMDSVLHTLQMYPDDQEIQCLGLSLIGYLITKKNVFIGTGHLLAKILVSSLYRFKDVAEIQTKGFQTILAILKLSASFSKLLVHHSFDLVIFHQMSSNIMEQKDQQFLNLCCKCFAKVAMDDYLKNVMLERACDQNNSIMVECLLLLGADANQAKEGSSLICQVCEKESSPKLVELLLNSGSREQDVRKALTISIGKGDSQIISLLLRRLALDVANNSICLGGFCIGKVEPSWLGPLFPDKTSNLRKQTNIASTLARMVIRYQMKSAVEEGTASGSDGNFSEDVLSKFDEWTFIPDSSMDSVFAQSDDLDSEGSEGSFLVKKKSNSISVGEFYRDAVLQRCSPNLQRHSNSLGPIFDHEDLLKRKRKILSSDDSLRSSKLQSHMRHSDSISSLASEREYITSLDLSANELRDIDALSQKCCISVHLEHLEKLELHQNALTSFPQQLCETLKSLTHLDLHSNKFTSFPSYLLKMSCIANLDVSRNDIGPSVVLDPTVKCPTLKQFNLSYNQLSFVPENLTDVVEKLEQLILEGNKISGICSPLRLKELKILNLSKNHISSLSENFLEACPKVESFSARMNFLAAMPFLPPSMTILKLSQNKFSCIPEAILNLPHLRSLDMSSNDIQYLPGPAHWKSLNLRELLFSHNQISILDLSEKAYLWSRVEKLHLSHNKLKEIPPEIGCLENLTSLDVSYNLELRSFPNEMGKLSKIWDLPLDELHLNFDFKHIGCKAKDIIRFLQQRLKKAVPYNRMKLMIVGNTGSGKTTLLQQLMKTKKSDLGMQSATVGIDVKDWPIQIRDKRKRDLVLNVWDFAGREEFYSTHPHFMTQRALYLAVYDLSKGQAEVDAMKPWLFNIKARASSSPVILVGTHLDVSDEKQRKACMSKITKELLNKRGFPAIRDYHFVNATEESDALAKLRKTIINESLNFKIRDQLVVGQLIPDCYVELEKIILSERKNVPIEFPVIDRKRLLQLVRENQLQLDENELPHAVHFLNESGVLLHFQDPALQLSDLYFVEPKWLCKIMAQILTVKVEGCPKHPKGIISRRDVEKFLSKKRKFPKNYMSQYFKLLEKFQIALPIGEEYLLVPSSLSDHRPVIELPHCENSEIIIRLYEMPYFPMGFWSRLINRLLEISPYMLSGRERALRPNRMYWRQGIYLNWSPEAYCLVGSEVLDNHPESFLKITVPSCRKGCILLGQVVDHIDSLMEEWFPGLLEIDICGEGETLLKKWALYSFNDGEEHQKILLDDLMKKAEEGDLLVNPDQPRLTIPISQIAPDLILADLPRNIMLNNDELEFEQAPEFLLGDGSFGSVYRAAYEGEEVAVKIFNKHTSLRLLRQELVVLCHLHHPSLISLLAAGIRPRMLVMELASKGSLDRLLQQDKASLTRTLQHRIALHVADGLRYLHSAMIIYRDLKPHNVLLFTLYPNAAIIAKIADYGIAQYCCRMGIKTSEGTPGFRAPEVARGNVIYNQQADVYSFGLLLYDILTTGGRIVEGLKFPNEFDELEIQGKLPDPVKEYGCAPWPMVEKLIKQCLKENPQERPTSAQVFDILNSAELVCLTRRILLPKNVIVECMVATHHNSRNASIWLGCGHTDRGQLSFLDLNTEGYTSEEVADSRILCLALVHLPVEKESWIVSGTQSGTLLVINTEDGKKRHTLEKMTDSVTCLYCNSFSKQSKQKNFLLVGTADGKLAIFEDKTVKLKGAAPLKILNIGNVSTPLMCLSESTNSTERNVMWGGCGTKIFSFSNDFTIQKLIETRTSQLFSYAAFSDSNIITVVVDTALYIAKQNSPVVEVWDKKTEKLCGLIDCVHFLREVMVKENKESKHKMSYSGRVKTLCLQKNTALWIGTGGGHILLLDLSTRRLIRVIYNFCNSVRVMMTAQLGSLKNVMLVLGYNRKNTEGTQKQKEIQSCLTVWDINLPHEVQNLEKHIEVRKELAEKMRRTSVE
Chain of Mitogen-activated protein kinase kinase kinase 11 (Homo sapiens) (Q16584 whole entry, looked up): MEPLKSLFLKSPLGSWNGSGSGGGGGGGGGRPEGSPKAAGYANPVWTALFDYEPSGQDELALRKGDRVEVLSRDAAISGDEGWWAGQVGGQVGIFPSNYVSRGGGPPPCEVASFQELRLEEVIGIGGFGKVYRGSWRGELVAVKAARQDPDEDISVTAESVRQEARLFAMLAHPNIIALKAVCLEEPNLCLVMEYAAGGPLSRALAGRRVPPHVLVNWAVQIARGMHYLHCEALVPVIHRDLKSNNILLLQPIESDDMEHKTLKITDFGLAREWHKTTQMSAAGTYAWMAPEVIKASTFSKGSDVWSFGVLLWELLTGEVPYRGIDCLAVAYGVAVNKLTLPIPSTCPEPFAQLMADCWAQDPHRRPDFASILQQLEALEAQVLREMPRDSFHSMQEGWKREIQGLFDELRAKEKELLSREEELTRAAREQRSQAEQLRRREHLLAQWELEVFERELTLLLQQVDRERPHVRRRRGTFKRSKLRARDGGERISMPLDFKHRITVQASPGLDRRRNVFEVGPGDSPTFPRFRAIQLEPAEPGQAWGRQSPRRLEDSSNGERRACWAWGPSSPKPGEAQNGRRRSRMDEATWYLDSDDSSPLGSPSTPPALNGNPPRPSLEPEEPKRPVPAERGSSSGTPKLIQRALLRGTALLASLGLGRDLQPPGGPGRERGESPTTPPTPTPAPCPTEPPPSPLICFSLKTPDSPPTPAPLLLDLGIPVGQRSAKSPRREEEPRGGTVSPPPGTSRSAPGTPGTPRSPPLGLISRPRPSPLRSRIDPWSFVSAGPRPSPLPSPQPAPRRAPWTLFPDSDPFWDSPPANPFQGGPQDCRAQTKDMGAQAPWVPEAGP
Chain of Nuclear body protein SP140-like protein (Homo sapiens) (Q9H930 whole entry): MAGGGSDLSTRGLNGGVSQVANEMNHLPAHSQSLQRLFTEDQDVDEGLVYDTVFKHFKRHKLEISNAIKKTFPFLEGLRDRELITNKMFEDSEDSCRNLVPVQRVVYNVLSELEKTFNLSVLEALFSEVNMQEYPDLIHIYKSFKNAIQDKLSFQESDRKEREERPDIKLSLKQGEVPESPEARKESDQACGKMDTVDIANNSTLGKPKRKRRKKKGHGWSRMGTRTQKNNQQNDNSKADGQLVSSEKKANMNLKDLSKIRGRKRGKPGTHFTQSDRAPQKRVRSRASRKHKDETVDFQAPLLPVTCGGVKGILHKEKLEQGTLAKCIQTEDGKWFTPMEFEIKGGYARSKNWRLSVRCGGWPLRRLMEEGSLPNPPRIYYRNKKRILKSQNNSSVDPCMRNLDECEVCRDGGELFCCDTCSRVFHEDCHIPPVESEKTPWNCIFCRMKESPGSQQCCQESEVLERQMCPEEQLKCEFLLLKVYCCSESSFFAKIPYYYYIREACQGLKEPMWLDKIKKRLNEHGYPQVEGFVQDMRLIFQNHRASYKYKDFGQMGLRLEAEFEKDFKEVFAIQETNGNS

SMILES: CN(C)C/C=C/C(=O)Nc1ccc(C(=O)N2CCCC(Nc3ncc(Cl)c(-c4c[nH]c5ccccc45)n3)C2)cc1 (stereo not drawn)
% of control [1]: 100% | % of control [2]: 98%

SMILES: Nc1cnc(N2CCc3cc(S(=O)(=O)Nc4c(F)cc(Cl)cc4F)cc(N4CCCC4=O)c32)nc1 [TP-020n]
% of control [3]: 100%

SMILES: CNC(=O)Nc1ccc(-c2nc(N3CC4CCC(C3)O4)c3cnn(C4CCC5(CC4)OCCO5)c3n2)cc1
% of control [4]: 100%

SMILES: N#Cc1cccc(-c2c[nH]c3ncnc(N4CCOCC4)c23)c1
% of control [5]: 99%

% of inhibition [6]: 5.5% | % of inhibition ([7]; at 0.01 µM): 18.4% | % of inhibition ([7]; at 0.04 µM): 1.9% | % of inhibition ([7]; at 0.2 µM): 22.9% | % of inhibition ([7]; at 1 µM): 70.9% | % of inhibition ([7]; at 5 µM): 78% | % of inhibition ([8]; at 0.01 µM): 3.8% | % of inhibition ([8]; at 0.04 µM): -0.9% | % of inhibition ([8]; at 0.2 µM): 5% | % of inhibition ([8]; at 1 µM): 8.5% | % of inhibition ([8]; at 5 µM): 17% | % of inhibition ([9]; at 0.01 µM): -18.1% | % of inhibition ([9]; at 0.04 µM): -9.1% | % of inhibition ([9]; at 0.2 µM): -3% | % of inhibition ([9]; at 1 µM): -10.3% | % of inhibition ([9]; at 5 µM): 16.3%
SMILES: CC[C@@H]1[C@H](F)C(=O)N[C@@H]1COc1nccc2cc(C(N)=O)c(OC)cc12 [ZIMLOVISERTIB]

dTM [10]: -2.98 K
SMILES: Cc1cc(CN)cc(C)c1-c1ncn(C)c1-c1cncn1C

SMILES: CCC(=O)N1CCN(c2ccc(-n3c(=O)ccc4cnc5ccc(-c6cnc7ccccc7c6)cc5c43)cc2C(F)(F)F)CC1
% of control [11]: 59%
